Here are results for two compounds from patent US7951843B2, “Amide linked modulators of γ-secretase” (Janssen Pharmaceutica N.V., priority 2007, dated 2011).

Each structure is given as a SMILES string.

The test concerns the target γ-secretase (Homo sapiens, UniProt P49768). Kind of test: Screening for γ-secretase-modulating activity in SKNBE2 cells carrying APP 695 wild type. The test is classed as cell-based. The note with it: SKNBE2 cells carrying the APP 695 wild type. How it is done:
Screening of the Compounds of the Invention for γ-Secretase-modulating Activity Screening was carried out using SKNBE2 cells carrying the APP 695—wild type, grown in DMEM/NUT-mix F12 (HAM) provided by Gibco (cat no. 31330-38) containing 5% Serum/Fe supplemented with 1% non-essential amino acids. Cells were grown to near confluency. The screening was performed using the assay as described in Citron et al (1997) Nature Medicine 3: 67.

On to `CC(C)CC(C(=O)O)c1cc(NC(=O)c2cc(C(F)(F)F)cc(C(F)(F)F)c2)cc(-c2ccc(C(F)(F)F)cc2)c1` (centres unmarked) [Compound 3, 2-[5-(3,5-Bis-trifluoromethyl-benzoylamino)-4′-trifluoromethyl-biphenyl-3-yl]-4-methyl-pentanoic acid], for which testing at 1 µM gave an inhibition of 24%.

On to `CC(C)CC(C(=O)O)c1cc(NC(=O)c2cc(F)cc(F)c2)cc(-c2ccc(C(F)(F)F)cc2)c1` (centres unmarked) [Compound 4, 2-[5-(3,5-Difluoro-benzoylamino)-4′-trifluoromethyl-biphenyl-3-yl]-4-methyl-pentanoic acid], for which testing at 1 µM gave an inhibition of 34%.
